These are literature values, as cited in patent publication CN105130966A, “炔基化合物及其使用方法和用途” (Add And Open Up Scientific Co, priority 2014, dated 2015).

SMILES strings stand for the structures.

In data set [1] the test system is any protein kinase tested (试验的任何蛋白激酶). The settings on record: Cell, 2006, 125, 733-747.
For the next data set, the target named is PI3Kδ (Mus musculus, UniProt O35904). The settings on record: ovalbumin-induced airway inflammation; FASEB, 2006, 20, 455-465.
PI3Kδ, sequence (O35904 whole entry): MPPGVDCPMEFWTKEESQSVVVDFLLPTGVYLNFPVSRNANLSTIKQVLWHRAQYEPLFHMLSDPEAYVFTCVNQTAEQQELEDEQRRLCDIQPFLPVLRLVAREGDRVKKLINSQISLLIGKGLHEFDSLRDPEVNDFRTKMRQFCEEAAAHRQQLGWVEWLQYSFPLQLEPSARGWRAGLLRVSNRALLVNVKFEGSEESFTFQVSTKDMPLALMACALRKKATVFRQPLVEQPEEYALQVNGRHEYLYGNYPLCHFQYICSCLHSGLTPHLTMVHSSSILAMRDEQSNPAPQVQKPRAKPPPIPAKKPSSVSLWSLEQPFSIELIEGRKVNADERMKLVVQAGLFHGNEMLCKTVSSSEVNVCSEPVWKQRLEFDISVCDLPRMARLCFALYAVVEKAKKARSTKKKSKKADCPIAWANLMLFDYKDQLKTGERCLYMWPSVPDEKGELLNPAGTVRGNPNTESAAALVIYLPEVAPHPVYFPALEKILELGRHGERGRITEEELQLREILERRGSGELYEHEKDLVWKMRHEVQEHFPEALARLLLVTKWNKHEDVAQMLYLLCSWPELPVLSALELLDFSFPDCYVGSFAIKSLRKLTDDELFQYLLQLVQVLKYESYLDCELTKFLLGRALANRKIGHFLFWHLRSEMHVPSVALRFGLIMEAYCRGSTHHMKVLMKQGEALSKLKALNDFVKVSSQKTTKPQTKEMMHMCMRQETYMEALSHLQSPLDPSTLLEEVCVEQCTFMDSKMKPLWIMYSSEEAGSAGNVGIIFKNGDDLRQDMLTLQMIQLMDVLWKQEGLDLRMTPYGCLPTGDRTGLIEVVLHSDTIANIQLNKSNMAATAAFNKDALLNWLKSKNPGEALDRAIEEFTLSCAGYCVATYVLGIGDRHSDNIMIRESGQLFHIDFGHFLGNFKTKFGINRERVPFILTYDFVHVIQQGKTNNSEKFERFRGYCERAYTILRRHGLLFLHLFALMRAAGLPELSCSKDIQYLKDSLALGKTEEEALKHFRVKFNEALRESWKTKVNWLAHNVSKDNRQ
PI3Kδ, sequence (P26450 whole entry partner): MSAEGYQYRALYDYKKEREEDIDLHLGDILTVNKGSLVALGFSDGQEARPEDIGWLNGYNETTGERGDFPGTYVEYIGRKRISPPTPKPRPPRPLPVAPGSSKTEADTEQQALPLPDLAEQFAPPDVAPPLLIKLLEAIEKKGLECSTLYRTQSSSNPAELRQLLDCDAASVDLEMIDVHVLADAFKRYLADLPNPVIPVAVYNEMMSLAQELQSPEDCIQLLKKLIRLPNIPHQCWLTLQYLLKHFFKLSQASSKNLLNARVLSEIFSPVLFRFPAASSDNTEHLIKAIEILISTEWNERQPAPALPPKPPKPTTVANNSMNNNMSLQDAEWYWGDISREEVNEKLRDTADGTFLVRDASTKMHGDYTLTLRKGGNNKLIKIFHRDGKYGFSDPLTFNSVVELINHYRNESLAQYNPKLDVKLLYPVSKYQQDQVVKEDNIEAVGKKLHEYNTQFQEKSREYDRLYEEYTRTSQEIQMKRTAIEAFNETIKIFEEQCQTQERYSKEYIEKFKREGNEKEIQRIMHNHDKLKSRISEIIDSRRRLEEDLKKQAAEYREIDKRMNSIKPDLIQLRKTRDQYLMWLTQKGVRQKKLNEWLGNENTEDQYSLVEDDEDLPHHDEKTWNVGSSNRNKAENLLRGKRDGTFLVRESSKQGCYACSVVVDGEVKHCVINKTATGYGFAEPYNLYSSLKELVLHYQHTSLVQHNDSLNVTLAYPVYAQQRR

Take `Cc1ccccc1-n1c(Cn2cnc3c(N)ncnc32)nc2cccc(C)c2c1=O` [IC87114]: the activity result in data set [1] is listed as “不显示活性”. Also, the inflammation entry on PI3Kδ is recorded as “显著改善炎症”.
